Read-outs that look alike come from different tables or passages of the source.
Columns and labels:
[1] = PS levels in ocular tissues after topical gellan gum-based in-situ gel; type: in vivo, New Zealand white rabbits; details: New Zealand white, rabbit, gellan gum 0.5% in-situ gel, 2.4~3% PS, eye drops
Description: Composition: 2.4˜3% PS; 0.5% Gellan gum; 5% Vitamin E TPGS; 10% (2-hydroxypropyl)-β-cyclodextrin. Preparation Method: A Gellan gum solution was prepared by adding a certain amount of gellan gum to deionized water and heating the mixture to 90° C. with fast stirring (500 rpm). Once completely dissolved, the solution was filtered through a 0.22 μm filter. Then, PS and additional excipients were added to the system to achieve the above concentrations and stirred at 50° C. at 500 rpm for 30 minutes to allow complete dissolution.
Results: The above PS formulation was administered topically as eye drops to the eyes of New Zealand white rabbits. The levels of PS in ocular tissues at 2 h later were determined by HPLC.

[2] = test system: oxygen-induced retinopathy; assay: Mouse model of oxygen-induced retinopathy; type: in vivo, C57BL/6 mice; details: intravitreal 1 μl PS solution on P12, retina on P17, vs vehicle
From the text: Several animal models have been explored to understand retinal vascular development. The mouse model of oxygen-induced retinopathy is the most widely used, and has played a pivotal role in our understanding of retinal angiogenesis and in the development of therapeutics such as anti-vascular endothelial growth factor injections for wet age-related macular degeneration.
C57BL/6 mice were reared in 75±2% oxygen air starting on postnatal day 7 (P7) and moved into room air on P12, when they were injected intravitreally with 1 μl of […] PS solution or vehicle. The PS solution consisted of 4.0% PS, 20% Poloxamer 407 and 12% VETPGS (d-α-tocopheryl polyethylene glycol 1000 succinate). On P17, the pups were euthanized, both eyes were enucleated and fixed with 4% paraformaldehyde (PFA). Following several intermediate steps, the retina was existed and fixed further with 4% PFA overnight. After appropriate washings, the retina was incubated with 10 μg/ml of FITC-conjugated anti-lectin antibody overnight and retina flat-mounts were prepared on glass slides and evaluated by fluorescence microscopy. The areas of the avascular, neovascular and whole retina were determined using ImageJ software.

corneal sensitivity = assay: Corneal touch threshold (CTT) assay, Cochet-Bonnet aesthesiometer; type: in vivo, rabbits
Description: FIGS. 10A and 10B illustrate the ocular analgesic effect of PS. FIG. 10A: One drop of PS 0.5%, vehicle, or lidocaine was applied to one eye of rabbits (n=4/group) and the corneal touch threshold (CTT) was determined using an Eshesiometer. Vehicle had no effect on CTT (not shown; overlaps with the 0 value horizontal line). Values=mean±SEM. FIG. 10B: PS 0.5% in formulations differing in pH as indicated produced different analgesic responses in rabbits. The areas under each curve (AUC), indicted in the figure, that quantify these responses vary by as much as >5 fold. Values are the average of 2; all were within 11% of each other.
FIGS. 11A and 11B illustrates the effect of various concentrations of PS on corneal sensitivity determined by the corneal touch threshold (CTT) assay. The CTT score is expressed as length of filament. Measurements were performed at the indicated time points after a single application of PS as an eye drop. Rabbits with normal or dry eyes were studied (n=6 eyes per group). Dry eyes were induced by Concanavalin A injection as described in the text. The % PS content in each study is shown. The numbers in parentheses indicate the corresponding value of the area under the curve. Values=mean±SEM.
FIGS. 12A and 12B illustrate the effect of various drugs on corneal sensitivity determined by the corneal touch threshold (CTT) assay described herein. Each drug was used in its commercially available form; one eye drop of each was applied. The numbers in parentheses indicate the corresponding value of the area under the curve. Values=mean±SEM.
The analgesic effect of PS was examined on the surface of the eye by determining the corneal touch threshold (CTT) using the Luneau Cochet-Bonnet Aesthesiometer (Western Ophthalmics, Lynwood, Wash.) an adjustable nylon monofilament with a defined diameter, which is applied in different lengths to the center of the cornea.
In this embodiment, the composition of the PS preparation was: 0.5% PS, 18% (2-hydroxypropyl)-β-cyclodextrin (HP-β-CD), 1-4% Tween 80. Preparation Method: HP-β-CD was dissolved in purified water maintained in a 50° C. water bath. PS was added into this solution and kept at 50° C. overnight with stirring at 500 rpm until PS was fully dissolved. Tween 80 was added into the PS HP-β-CD solution, which was then centrifuged at 3000 rpm for 10 min to remove undissolved particles. The supernatant was collected and pH was adjusted to the desired value using a NaOH solution. The analgesic effect of PS was examined as above.
The effect of PS and other compounds on corneal sensitivity was determined in rabbits with normal or dry eyes using the CTT assay as above; DED was induced by Concanavalin A as previously described. The CTT score, expressed as filament length in mm, of normal eyes was 5.56±0.11 mm (mean±SEM for this and subsequent values) and in dry eyes 4.17±0.12 mm; the difference between the two is statistically significant (p<0.0001).

[3] = Rabbit ocular PK study of PS emulsion (2% PS); type: in vivo, New Zealand rabbits; details: 2% PS emulsion
Description: A formulation includes 2% PS; 5% Propylene glycol, 10% Mineral oil, 4% Tween 60, 4% Tween 80, 10% (2-hydroxypropyl)-β-cyclodextrin (HP-β-CD). Preparation method (2 mL scale): Oil phase: weight PS into glass vial, add propylene glycol, stir at 50° C. to obtain a clear solution. Then add mineral oil, stir to obtain a clear solution. Water phase: Dissolve HP-β-CD, […] and Tween 80 into water. Add water phase into oil phase, probe-sonicate for 5 sec, 8 times, with 5 sec intervals. Resultant emulsion is filtrated through 0.22 μm filter.
Rabbit ocular pharmacokinetic (PK) study: PS was administered to New Zealand rabbits topically to the eye; as three 25 μL eye drops, 5 min apart. Rabbits were euthanized at eight specified time points between 0.25 to 16 h, ocular tissues were dissected and PS was extracted with acetonitrile and its tissue levels as well as those of its metabolites were determined by HPLC as described (Xie G. et al., Br J Pharmacol 165:2′52-2166; 2012).

[4] = three 25 μL eye drops, PS and its metabolites

Compound: CCOP(=O)(OCC)OCCCCOC(=O)CC1=C(C)/C(=C/c2ccc([S+](C)[O-])cc2)c2ccc(F)cc21 (stereo not shown) [PS, phosphosulindac]
- concentration at 2 h ([1]; aqueous humor, read-out: PS in Aqueous humor): 1.2 µM
- concentration at 2 h ([1]; conjunctiva, read-out: PS in Conjunctiva): 24.1 µM
- concentration at 2 h ([1]; cornea, read-out: PS in Cornea): 72 µM
- inhibition of peripheral neovascularization [2]: 36%
- reduction of central avascular area [2]: 51%
- effect on corneal sensitivity (CTT), dry eyes (corneal sensitivity; 0.05% PS): ineffective
- effect on corneal sensitivity (CTT), dry eyes (corneal sensitivity; 0.2% and 1.6% PS): essentially equipotent
- effect on corneal sensitivity (CTT), dry eyes (corneal sensitivity; Con A-induced dry eyes, single eye drop): restored the already suppressed ocular sensitivity
- variation of AUC of analgesic response between formulations differing in pH (corneal sensitivity; PS 0.5%, HP-β-CD formulation): > 5 fold
- duration of response of corneal sensation (corneal sensitivity; dry eye): less than 100 min
- onset of response of corneal sensation (corneal sensitivity; dry eye): ≤ 5 min
- time at which values returned to baseline (corneal sensitivity; dry eyes): 100 min
- analgesic effect (CTT) (corneal sensitivity; naïve rabbits, single eye drop, PS 0.5%): essentially instantaneous and significant analgesia
- effect on corneal sensitivity (CTT), normal eyes (corneal sensitivity; single eye drop, various PS concentrations): dose-dependent analgesic effect
- PS in the retina ([3]; eye drops): no PS was detected
- Cmax, aqueous humor [3, 4]: 0.9 μm
- Cmax, conjunctiva [3, 4]: 33.6 μm
- Cmax, cornea [3, 4]: 85.4 μm
- AUC(0-t) ([3]; New Zealand, rabbit, iris and ciliary body, topical or ocular, eye drops, read-out: AUC0-16 h in the iris and ciliary body): < 4 µM·h

From patent US20220233556A1, “COMPOSITIONS AND METHODS FOR TREATING OPHTHALMIC CONDITIONS” (Medicon Pharmaceuticals, Inc., priority 2017, published 2022)
